Assay results reported in article PMC7714403 (JCI Insight, 2020).

What was measured:
Wnk1, Wnk2, Wnk4 = assay: KiNativ, OCI cells live cell; assay type: cell-based, human; conditions: labeling site Activation Loop, peptide IGDLGLATLKR
MST1, MST2 = assay: KiNativ, OCI cells live cell; assay type: cell-based, human; conditions: labeling site Lys2, peptide DIKAGNILLNTEGHAK
MAPKAPK2, MAPKAPK3 = assay: KiNativ, OCI cells live cell; assay type: cell-based, human; conditions: labeling site Lys2, peptide DVKPENLLYTSK
NEK7 = NEK7 (Homo sapiens, UniProt Q8TDX7); assay: KiNativ, OCI cells live cell; assay type: cell-based; conditions: 2 h, labeling site Lys1, peptide […]
DGKA = DGKA (Homo sapiens, UniProt P23743); assay: KiNativ, OCI cells live cell; assay type: cell-based; conditions: 2 h, labeling site ATP, peptide […]
MST2 = MST2 (Homo sapiens, UniProt Q13188); assay: KiNativ, OCI cells live cell; assay type: cell-based; conditions: 2 h, labeling site Lys1, peptide […]
cord blood CD34+ cells = assay: CFU assay, normal cells; assay type: cell-based, human; conditions: 2 donors
Description: For human primary CFU assays, cells were cultured in MethoCult H4035 Optimum without EPO (Stemcell Technologies). For mouse primary CFU assays, cells were directly cultured in MethoCult M3231 (Stemcell Technologies) supplemented with 45 ng/mL of murine IL-6 (mIL-6), mIL-3, and mSCF. Both human and mouse primary cells 10,000 cells were plated in duplicate for each drug concentration. For cell line CFU assays, MV4-11 cells were treated with drugs in the presence of 20 ng/mL IL-3, GM-CSF, or FGF2. Cells were plated in MethoCult H4230 (Stemcell Technologies) in duplicates at 250 cells/plate. Plates were placed in a 37°C incubator for 7 or 14 days for human cell lines and for mouse or human primary cells, respectively. Colonies were identified as clusters containing 40 or more cells. For CFU assays using human primary CD34^+ cells, umbilical cord blood was obtained from the OSU Comprehensive Cancer Center (CCC) Leukemia Tissue Bank Shared Resource, and mononuclear cells were isolated by using density gradient centrifugation. CD34^+ cells were purified using the CD34 UltraPure MicroBead Kit (Miltenyi Biotec) according to the manufacturer’s instructions. CFU assay with CD34^+ cells was performed as described above, and the total number of colonies were counted after 7–10 days.

OCI-AML3-Luc+ cells = assay: OCI-AML3-Luc+ xenograft model; assay type: in vivo, NSG mice
Description: Engraftment and growth of leukemic cells were monitored by noninvasive bioluminescence imaging in cell line xenograft models, as previously done ([47]). Details on the cell engraftment and dosing in mouse models are provided in the Supplemental Methods.
Luc+ or MOLM13-Res -Luc+ cells, 0.5 million OCI-AML3 -Luc+ cells, and 10,000 Ba/F3-FLT3-ITD/F691L-GFP+ cells. Weekly tumor engraftment of cell line xenograft models were assessed after injection of D-luciferin (150mg/kg i.p.; Gold Biotechnology, Inc, St. Louis, MO) on Xenogen IVIS-200 imaging system (Perkin Elmer, Waltham, MA) or GFP monitoring by peripheral blood via BD LSR II flow cytometer (BD Biosciences, San Jose, CA). Signal intensity was analyzed using Living Image Software (PerkinElmer) or FlowJo v10.0.08 software (FlowJo, LLC, Ashland, OR). Mice were randomized to treatment groups based on signal intensity and leukemia burden. Drug treatments were started on days 3, 7, or 13 after cell injection in OCI-AML3, MOLM13, and MOLM13-Res xenografts, respectively. […]
All mice were observed daily and humanely euthanized when showing signs of progressive disease including, hind limb paralysis, weight loss more than 20%, and lethargy. All animal studies were approved by the OSU Institutional Animal Care and Use Committee. […]
Cells were then fixed on ice with ice-cold 70% ethanol for 30 minutes . Cells were either stored at -20°C for up to 1 month or processed immediately. Cells were spun down at 450 x g for 10 minutes and stained

ABL1 = biological target: T1, ABL1 (Homo sapiens, UniProt P00519); assay: KdELECT binding assay
T1 construct: purchased Eurofins DiscoverX

FLT3 ITD/F691L = FLT3 ITD/F691L (Homo sapiens, UniProt P36888, F691L/ITD); assay: KdELECT binding assay
ROCK1 = ROCK1 (Homo sapiens, UniProt Q13464); assay: KiNativ, OCI cells live cell; assay type: cell-based; conditions: 2 h, labeling site Other, peptide […]
FER = FER (Homo sapiens, UniProt P16591); assay: KiNativ, OCI cells live cell; assay type: cell-based; conditions: 2 h, labeling site Activation Loop, peptide […]
[1] = 50 mg/kg once daily 5 days/week

CN1CCN(Cc2ccc(Nc3ncc(Cl)c(Nc4ccccc4S(=O)(=O)N(C)C)n3)cc2)CC1 [TP-0903]
Inhibition (Wnk1, Wnk2, Wnk4): -23.7%
Inhibition (MST1, MST2): 35.6%
Inhibition (MAPKAPK2, MAPKAPK3): -42.8%
inhibition at 0.1 µM (NEK7): -38.8%
inhibition at 0.1 µM (DGKA): -41.6%
inhibition at 0.1 µM (MST2): 7.3%
Concentration inhibiting colony formation of CD34+ cells (cord blood CD34+ cells): 200 nM
Outgrowth of leukemia cells (bioluminescence) (OCI-AML3-Luc+ cells; [1]): suppressed the outgrowth of leukemia cells
Spleen weight at study endpoint (mean ± SD) (OCI-AML3-Luc+ cells; [1]): 181 ± 21 mg
Survival prolonged compared with vehicle (OCI-AML3-Luc+ cells; 50 mg/kg once daily 5 days/week up to 6 weeks): 9 days
Kd (ABL1): < 5 nM
Kd (FLT3 ITD/F691L): 1.9 nM
inhibition at 0.1 µM (ROCK1): 25%
inhibition at 0.1 µM (FER): 70.2%
